Reference: patent US10787446B2 (GENENTECH, INC., priority 2015, dated 2020)
Structures can show the parent of a compound that is named as a salt.

target: T1, hNav1.7 and the β1 subunit (Homo sapiens, UniProt Q15858); assay: Tritiated compound competitive binding to membranes from cells heterologously expressing hNav1.7 and the β1 subunit (LBA); conditions: competition with 100 pM [3H]compound, 18 h, room temperature; IC50 by 4 parameter logistic model
T1 construct: expressed in transfected cells
Procedure: Example 235 Tritiated Compound Binding to Membranes Isolated from Cells that Heterologously Express hNav1.7 and the β1 Subunit
Preparation of membranes containing recombinantly expressed sodium channels: Frozen recombinant cell pellets were thawed on ice and diluted to 4 times the cell pellet weight with ice cold 50 mM Tris HCl, pH 7.4 buffer. The cell suspensions were homogenized on ice using a motorized glass dounce homogeniser. Homogenates were further diluted 8.4 times with ice cold 50 mM Tris HCl, pH 7.4 buffer and then centrifuged at 200×g at 4° C. for 15 min. The supernatants were collected and centrifuged at 10000×g at 4° C. for 50 min. The pellets were then re-suspended in 100 mM NaCl, 20 mM Tris HCl, pH 7.4 buffer containing 1% v/v protease inhibitors (Calbiochem) and re-homogenized on ice. The homogenized membranes were then processed through a syringe equipped with a 26 gauge needle. Protein concentrations were determined by Bradford Assay and the membranes were stored at −80° C.
Radioligand Binding Studies:
Saturation experiments. A competitive NaV1.7 inhibitor having a methyl group was tritiated. Three tritiums were incorporated in place of methyl hydrogens to generate [^3H]compound. Binding of this radioligand was performed in 5 mL borosilicate glass test tubes at room temperature. Binding was initiated by adding membranes to increasing concentrations of [^3H]compound in 100 mM NaCl, 20 mM Tris HCl, pH 7.4 buffer containing 0.01% w/v bovine serum albumin (BSA) for 18 h. […] After 18 h, the reactants were filtered through GF/C glass fiber filters presoaked in 0.5% w/v polyethylene imine. […] [^3H]compound bound to filters was quantified by liquid scintillation counting.
Competitive Binding Experiments:
Binding reactions were performed in 96-well polypropylene plates at room temperature for 18 h. In 360 μL, membranes were incubated with 100 pM [^3H]compound and increasing concentrations of Test Compound. […] Reactions were transferred and filtered through 96-well glass fiber/C filter plates presoaked with 0.5% polyethylene imine. The filtered reactions were washed 5 times with 200 μL ice cold buffer containing 0.25% BSA. Bound radioactivity was determined by liquid scintillation counting.
Data Analysis: For saturation experiments, non-specific binding was subtracted from total binding to provide specific binding and these values were recalculated in terms of pmol ligand bound per mg protein. Saturation curves were constructed and dissociation constants were calculated using the single site ligand binding model: Beq=(Bmax*X)/(X+Kd), where Beq is the amount of ligand bound at equilibrium, Bmax is the maximum receptor density, Kd is the dissociation constant for the ligand, and X is the free ligand concentration. For competition studies percent inhibition was determined and IC50 values were calculated using a 4 parameter logistic model (% inhibition=(A+((B−A)/(1+((x/C)^D)))) using XLfit, where A and B are the maximal and minimum inhibition respectively, C is the IC50 concentration and D is the (Hill) slope.

T1 sequence (Q15858 whole entry): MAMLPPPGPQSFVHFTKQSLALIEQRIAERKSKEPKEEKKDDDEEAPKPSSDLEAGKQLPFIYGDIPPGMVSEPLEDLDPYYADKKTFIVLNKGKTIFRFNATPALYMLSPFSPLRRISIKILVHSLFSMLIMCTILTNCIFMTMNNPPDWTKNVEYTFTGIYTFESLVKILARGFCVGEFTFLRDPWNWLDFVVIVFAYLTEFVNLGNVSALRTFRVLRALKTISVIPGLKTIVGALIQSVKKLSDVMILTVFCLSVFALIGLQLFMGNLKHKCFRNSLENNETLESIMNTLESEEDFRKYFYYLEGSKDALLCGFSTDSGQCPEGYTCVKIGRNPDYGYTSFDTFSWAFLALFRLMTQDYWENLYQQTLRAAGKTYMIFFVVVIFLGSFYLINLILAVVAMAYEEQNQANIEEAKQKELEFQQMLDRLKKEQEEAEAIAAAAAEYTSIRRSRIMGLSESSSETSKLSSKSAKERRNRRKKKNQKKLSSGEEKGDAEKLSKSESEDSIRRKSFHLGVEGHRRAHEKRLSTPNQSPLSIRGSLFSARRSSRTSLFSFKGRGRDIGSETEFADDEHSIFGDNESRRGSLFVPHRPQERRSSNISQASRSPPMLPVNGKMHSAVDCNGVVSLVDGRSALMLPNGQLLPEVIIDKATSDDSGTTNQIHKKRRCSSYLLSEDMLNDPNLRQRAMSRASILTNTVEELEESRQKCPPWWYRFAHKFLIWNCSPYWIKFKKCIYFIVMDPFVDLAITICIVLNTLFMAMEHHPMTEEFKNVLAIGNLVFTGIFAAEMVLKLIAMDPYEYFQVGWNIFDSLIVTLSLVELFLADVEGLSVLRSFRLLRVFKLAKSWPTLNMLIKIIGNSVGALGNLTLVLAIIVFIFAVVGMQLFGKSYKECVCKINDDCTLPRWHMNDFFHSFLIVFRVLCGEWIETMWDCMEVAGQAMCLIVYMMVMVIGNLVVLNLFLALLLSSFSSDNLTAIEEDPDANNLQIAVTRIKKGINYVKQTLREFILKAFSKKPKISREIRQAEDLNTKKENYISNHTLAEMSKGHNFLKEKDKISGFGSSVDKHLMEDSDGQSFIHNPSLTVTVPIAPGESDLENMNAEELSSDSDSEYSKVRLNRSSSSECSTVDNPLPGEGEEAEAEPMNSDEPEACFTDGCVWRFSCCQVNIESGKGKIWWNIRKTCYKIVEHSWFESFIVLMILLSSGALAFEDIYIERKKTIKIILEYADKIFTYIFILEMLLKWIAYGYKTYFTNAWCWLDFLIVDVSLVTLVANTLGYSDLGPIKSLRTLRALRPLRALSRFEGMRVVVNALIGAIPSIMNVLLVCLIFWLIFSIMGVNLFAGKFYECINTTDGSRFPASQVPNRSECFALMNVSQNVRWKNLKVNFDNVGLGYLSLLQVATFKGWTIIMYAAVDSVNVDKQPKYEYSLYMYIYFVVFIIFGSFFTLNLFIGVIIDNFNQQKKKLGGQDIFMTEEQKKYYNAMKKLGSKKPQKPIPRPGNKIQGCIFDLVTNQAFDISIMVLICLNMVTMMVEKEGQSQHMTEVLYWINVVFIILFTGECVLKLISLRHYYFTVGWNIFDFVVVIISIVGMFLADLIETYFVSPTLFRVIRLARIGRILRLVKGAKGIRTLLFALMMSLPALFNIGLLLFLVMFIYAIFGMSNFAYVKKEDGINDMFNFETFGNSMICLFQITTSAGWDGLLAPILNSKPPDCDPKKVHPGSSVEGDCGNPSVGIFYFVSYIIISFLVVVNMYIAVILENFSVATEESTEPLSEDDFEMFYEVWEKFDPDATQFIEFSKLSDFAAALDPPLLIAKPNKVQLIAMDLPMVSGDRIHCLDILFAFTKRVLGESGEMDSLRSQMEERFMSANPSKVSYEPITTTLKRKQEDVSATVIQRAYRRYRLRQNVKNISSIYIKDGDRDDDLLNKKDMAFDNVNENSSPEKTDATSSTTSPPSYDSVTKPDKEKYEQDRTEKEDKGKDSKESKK
T1 sequence (Q07699 19-218 partner): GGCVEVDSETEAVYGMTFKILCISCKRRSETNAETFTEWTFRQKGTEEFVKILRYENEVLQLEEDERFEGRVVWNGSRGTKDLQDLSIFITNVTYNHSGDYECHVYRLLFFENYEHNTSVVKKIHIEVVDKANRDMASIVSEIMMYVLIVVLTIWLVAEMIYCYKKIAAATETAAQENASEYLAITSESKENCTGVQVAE

Nav1.7 (LBA) | SMILES
0.288 µM | CC1(C)CCN(Cc2cc(F)c(S(=O)(=O)Nc3ncns3)cc2F)[C@H](c2ccccc2)C1 (single isomer, unassigned) [Example 2]
9.28 µM | CC1(C)CCN(Cc2cc(F)c(S(=O)(=O)Nc3ncns3)cc2F)[C@@H](c2ccccc2)C1 (single isomer, unassigned) [Example 3]
0.17 µM | C[C@@H]1CCN(Cc2cc(F)c(S(=O)(=O)Nc3ncns3)cc2F)[C@H](c2ccccc2)C1 (single isomer, unassigned) [Example 6]
4.23 µM | C[C@H]1CCN(Cc2cc(F)c(S(=O)(=O)Nc3ncns3)cc2F)[C@@H](c2ccccc2)C1 (single isomer, unassigned) [Example 7]
1.56 µM | C[C@@H]1CC[C@H](c2ccccc2)N(Cc2cc(F)c(S(=O)(=O)Nc3ncns3)cc2F)C1 (single isomer, unassigned) [Example 20]
0.672 µM | C[C@H]1CC[C@@H](c2ccccc2)N(Cc2cc(F)c(S(=O)(=O)Nc3ncns3)cc2F)C1 (single isomer, unassigned) [Example 21]
1.55 µM | C[C@H]1CCCN(Cc2cc(F)c(S(=O)(=O)Nc3ncns3)cc2F)[C@H]1c1ccccc1 (single isomer, unassigned) [Example 22]
0.366 µM | C[C@@H]1CCCN(Cc2cc(F)c(S(=O)(=O)Nc3ncns3)cc2F)[C@@H]1c1ccccc1 (single isomer, unassigned) [Example 23]
5.98 µM | O=S(=O)(Nc1ncns1)c1cc(F)c(CN2CC[C@@H](F)C[C@H]2c2ccccc2)cc1F (single isomer, unassigned) [Example 28]
0.157 µM | O=S(=O)(Nc1ncns1)c1cc(F)c(CN2CC[C@H](F)C[C@@H]2c2ccccc2)cc1F (single isomer, unassigned) [Example 29]
1.71 µM | O=S(=O)(Nc1ncns1)c1cc(F)c(CN2CC[C@@H](F)C[C@@H]2c2ccccc2)cc1F (single isomer, unassigned) [Example 30]
0.374 µM | O=S(=O)(Nc1ncns1)c1cc(F)c(CN2CC[C@H](F)C[C@H]2c2ccccc2)cc1F (single isomer, unassigned) [Example 31]
0.18 µM | O=S(=O)(Nc1ncns1)c1cc(F)c(CN2CCC(F)(F)C[C@H]2c2ccccc2)cc1F (single isomer, unassigned) [Example 32]
4.16 µM | O=S(=O)(Nc1ncns1)c1cc(F)c(CN2CCC(F)(F)C[C@@H]2c2ccccc2)cc1F (single isomer, unassigned) [Example 33]
0.0786 µM | O=S(=O)(Nc1ncns1)c1cc(F)c(CN2CC[C@H](OC(F)(F)F)C[C@@H]2c2ccccc2)cc1F (single isomer, unassigned) [Example 35]
0.538 µM | O=S(=O)(Nc1ncns1)c1cc(F)c(CN2CC[C@H](OC(F)(F)F)C[C@H]2c2ccccc2)cc1F (single isomer, unassigned) [Example 36]

Further lines, the compound ahead of its results:

SMILES | Nav1.7 (LBA)
CC[C@H]1CCCCN1[C@H](C)c1ccc(S(=O)(=O)Nc2ncns2)cc1Cl (racemic) [Example 58, (±)-3-chloro-4-((R)-1-((S)-2-ethylpiperidin-1-yl)ethyl)-N-(1,2,4-thiadiazol-5-yl)benzenesulfonamide] | 5.3 µM
O=S(=O)(Nc1ncns1)c1ccc2c(c1)CC[C@@H]2N1CCCC[C@H]1c1ccccc1 (racemic) [Example 67, 1-(2-phenylpiperidin-1-yl)-N-(1,2,4-thiadiazol-5-yl)-2,3-dihydro-1H-indene-5-sulfonamide] | 0.157 µM
O=S(=O)(Nc1ncns1)c1cc2c(cc1F)[C@@H](N1CCCC[C@@H]1c1ccc(F)cc1)CCO2 (racemic) [Example 86, (±)-(S)-6-fluoro-4-((R)-2-(4-fluorophenyl)piperidin-1-yl)-N-(1,2,4-thiadiazol-5-yl)chromane-7-sulfonamide] | 0.00496 µM
O=S(=O)(Nc1ncns1)c1cc2c(cc1F)[C@@H](N1CCCC[C@H]1c1ccc(F)cc1)CCO2 (racemic) [Example 87, (±)-(S)-6-fluoro-4-((S)-2-(4-fluorophenyl)piperidin-1-yl)-N-(1,2,4-thiadiazol-5-yl)chromane-7-sulfonamide] | 0.00726 µM
O=S(=O)(Nc1ncns1)c1cc2c(cc1F)C(N1CCC(C(F)(F)F)CC1c1ccc(F)cc1)CCO2 (racemic) [Example 88, 6-fluoro-4-(cis-2-(4-fluorophenyl)-4-(trifluoromethyl)piperidin-1-yl)-N-(1,2,4-thiadiazol-5-yl)chromane-7-sulfonamide] | 0.00168 µM
O=S(=O)(Nc1nccs1)c1cc2c(cc1F)[C@H](N1CC[C@@H](C(F)(F)F)C[C@H]1c1ccc(F)cc1)CCO2 (racemic) [Example 93] | 0.00333 µM
O=S(=O)(Nc1ncccn1)c1cc2c(cc1F)C(N1CCC(C(F)(F)F)CC1c1ccc(F)cc1)CCO2 (racemic) [Example 96, (±)-(R)-6-fluoro-4-((cis)-2-(4-fluorophenyl)-4-(trifluoromethyl)piperidin-1-yl)-N-(pyrimidin-2-yl)chromane-7-sulfonamide] | 0.00994 µM
O=S(=O)(Nc1ncns1)c1cc(F)c(CN2CCCC[C@H]2c2ccnnc2)cc1F (single isomer, unassigned) [Example 11] | 1.26 µM
Nc1cc([C@@H]2CCCCN2Cc2cc(F)c(S(=O)(=O)Nc3ncns3)cc2F)ccn1 (single isomer, unassigned) [Example 13] | 0.158 µM
Cn1nccc1[C@H]1CCCCN1Cc1cc(F)c(S(=O)(=O)Nc2ncns2)cc1F (single isomer, unassigned) [Example 14] | 0.22 µM
Cn1nccc1[C@@H]1CCCCN1Cc1cc(F)c(S(=O)(=O)Nc2ncns2)cc1F (single isomer, unassigned) [Example 15] | 9.36 µM
C[C@H](c1cc(F)c(S(=O)(=O)Nc2ncns2)cc1F)N1CCCC[C@@H]1c1ccccc1 (single isomer, unassigned) [Example 16] | 3.65 µM
C[C@H](c1cc(F)c(S(=O)(=O)Nc2ncns2)cc1F)N1CCCC[C@H]1c1ccccc1 (single isomer, unassigned) [Example 18] | 1.38 µM
O=S(=O)(Nc1ncns1)c1cc(F)c(CN2CCCC[C@H]2c2cn[nH]c2)cc1F (single isomer, unassigned) [Example 25] | 2.24 µM
O=S(=O)(Nc1ncns1)c1cc(F)c(CN2CCCC[C@H]2c2ccn[nH]2)cc1F (single isomer, unassigned) [Example 27] | 0.118 µM
O=S(=O)(Nc1ncns1)c1ccc2c(c1)OCC[C@@H]2N1CCCC[C@H]1c1ccccc1 (single isomer, unassigned) [Example 37] | 0.0254 µM
O=S(=O)(Nc1ncns1)c1ccc2c(c1)OCC[C@H]2N1CCCC[C@H]1c1ccccc1 (single isomer, unassigned) [Example 38] | 0.203 µM
O=S(=O)(Nc1ncns1)c1ccc2c(c1)OCC[C@@H]2N1CCC[C@H]1c1ccccc1 (single isomer, unassigned) [Example 39] | 0.274 µM
O=S(=O)(Nc1ncns1)c1ccc2c(c1)OCC[C@H]2N1CCC[C@H]1c1ccccc1 (single isomer, unassigned) [Example 40] | 0.798 µM
O=S(=O)(Nc1ncns1)c1ccc2c(c1)CCC[C@@H]2N1CCCC[C@@H]1c1ccccc1 (single isomer, unassigned) [Example 51] | 0.482 µM
O=S(=O)(Nc1ncns1)c1ccc2c(c1)CCC[C@@H]2N1CCCC[C@H]1c1ccccc1 (single isomer, unassigned) [Example 52] | 0.269 µM
O=S(=O)(Nc1ncns1)c1ccc2c(c1)CCC[C@H]2N1CCCC[C@H]1c1ccccc1 (single isomer, unassigned) [Example 53, trifluoroacetic acid salt] | 0.271 µM
O=S(=O)(Nc1ncns1)c1ccc2c(c1)CCC[C@@H]2N1CCCC[C@H]1c1ccccc1 (single isomer, unassigned) [Example 54] | 0.411 µM
O=S(=O)(Nc1ncns1)c1ccc2c(c1)CCC[C@H]2N1CCCC[C@@H]1c1ccccc1 (single isomer, unassigned) [Example 55] | 0.286 µM
